Results published in ChEMBL document CHEMBL1201862, “PubChem BioAssay data set” (2004).
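A five-concentration, 48-hour dose response in 96-well plates underlies each endpoint, interpolated linearly between surrounding concentrations. At the GI50, growth is halved.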 Activity calls are given as the source filed them. No stated cut-off is given here; in the data, active = GI50 up to about 1.1 µM and inactive = higher.

How the values were obtained:
Test in all cases: NCI tumour cell line growth inhibition, 48 h
HOP-62 = test system: HOP-62
UACC-62 = test system: UACC-62
Malme-3M = test system: Malme-3M
Hs-578T = test system: Hs-578T
SK-MEL-2 = test system: SK-MEL-2
SF-268 = test system: SF-268
U-251 = test system: U-251
MDA-MB-435 = test system: MDA-MB-435
OVCAR-8 = test system: OVCAR-8
HCC 2998 = test system: HCC 2998
SK-MEL-5 = test system: SK-MEL-5
NCI-H460 = test system: NCI-H460
ACHN = test system: ACHN
LOX IMVI = test system: LOX IMVI
OVCAR-3 = test system: OVCAR-3
A549 = test system: A549
SF-295 = test system: SF-295
M14 = test system: M14
BT-549 = test system: BT-549
EKVX = test system: EKVX
HCT-116 = test system: HCT-116
MCF7 = test system: MCF7
UACC-257 = test system: UACC-257
TK-10 = test system: TK-10
KM12 = test system: KM12
NCI-H226 = test system: NCI-H226
PC-3 = test system: PC-3
MDA-N = test system: MDA-N
RXF 393 = test system: RXF 393
OVCAR-5 = test system: OVCAR-5
SK-MEL-28 = test system: SK-MEL-28
NCI/ADR-RES = test system: NCI/ADR-RES
OVCAR-4 = test system: OVCAR-4
SN12C = test system: SN12C
K562 = test system: K562
SNB-19 = test system: SNB-19
SNB-75 = test system: SNB-75
NCI-H522 = test system: NCI-H522
A498 = test system: A498
T47D = test system: T47D
DU-145 = test system: DU-145
HT-29 = test system: HT-29
RPMI-8226 = test system: RPMI-8226
IGROV-1 = test system: IGROV-1
SR = test system: SR
786-0 = test system: 786-0
SW-620 = test system: SW-620
HL-60 = test system: HL-60
SK-OV-3 = test system: SK-OV-3
UO-31 = test system: UO-31
COLO 205 = test system: COLO 205
HCT-15 = test system: HCT-15
MOLT-4 = test system: MOLT-4
NCI-H23 = test system: NCI-H23
MDA-MB-231 = test system: MDA-MB-231
CCRF-CEM = test system: CCRF-CEM
CAKI-1 = test system: CAKI-1

`NC(CC(O)(c1ccccc1)c1ccccc1)c1ccccc1S` (stereo not drawn) was tested, and the GI50 (HOP-62) was 15.7 µM (inactive), the GI50 (UACC-62) was 15.5 µM (inactive) and the GI50 (Malme-3M) was 25.7 µM (inactive). For the same compound, the GI50 (Hs-578T) was 20.3 µM (inactive), the GI50 (SK-MEL-2) was 15.9 µM (inactive) and the GI50 (SF-268) was 9.71 µM (inactive). The GI50 (U-251) was 15.1 µM (inactive), the GI50 (MDA-MB-435) was 14.8 µM (inactive) and the GI50 (OVCAR-8) was > 10 µM (inactive). For the same compound, the GI50 (HCC 2998) was 17.3 µM (inactive), the GI50 (SK-MEL-5) was 13 µM (inactive) and the GI50 (NCI-H460) was 18 µM (inactive). The GI50 (ACHN) was 13.1 µM (inactive), the GI50 (LOX IMVI) was 13.8 µM (inactive) and the GI50 (OVCAR-3) was 16 µM (inactive). For the same compound, the GI50 (A549) was 14.7 µM (inactive), the GI50 (SF-295) was 14.9 µM (inactive) and the GI50 (M14) was 15.4 µM (inactive). The GI50 (BT-549) was 14.7 µM (inactive), the GI50 (EKVX) was 7.94 µM (inactive) and the GI50 (HCT-116) was 13.2 µM (inactive). The GI50 (MCF7) was 15.2 µM (inactive), the GI50 (UACC-257) was 18.9 µM (inactive) and the GI50 (TK-10) was 15.7 µM (inactive). For the same compound, the GI50 (KM12) was 12.5 µM (inactive), the GI50 (NCI-H226) was 15 µM (inactive) and the GI50 (PC-3) was 11.4 µM (inactive). The GI50 (MDA-N) was 15.6 µM (inactive), the GI50 (RXF 393) was 17 µM (inactive) and the GI50 (OVCAR-5) was 15.9 µM (inactive). For the same compound, the GI50 (SK-MEL-28) was 17.5 µM (inactive), the GI50 (NCI/ADR-RES) was 16.6 µM (inactive) and the GI50 (OVCAR-4) was 15.9 µM (inactive). For the same compound, the GI50 (SN12C) was 18.8 µM (inactive), the GI50 (K562) was 16.4 µM (inactive) and the GI50 (SNB-19) was 16.4 µM (inactive). For the same compound, the GI50 (SNB-75) was 15 µM (inactive), the GI50 (NCI-H522) was 16.6 µM (inactive) and the GI50 (A498) was 17.6 µM (inactive). The GI50 (T47D) was 16.8 µM (inactive), the GI50 (DU-145) was > 10 µM (inactive) and the GI50 (HT-29) was 14.5 µM (inactive). For the same compound, the GI50 (RPMI-8226) was 22.2 µM (inactive), the GI50 (IGROV-1) was > 10 µM (inactive) and the GI50 (SR) was 23.6 µM (inactive). The GI50 (786-0) was 15.9 µM (inactive), the GI50 (SW-620) was 16.7 µM (inactive) and the GI50 (HL-60) was 15 µM (inactive). For the same compound, the GI50 (SK-OV-3) was 18.7 µM (inactive), the GI50 (UO-31) was 11.4 µM (inactive) and the GI50 (COLO 205) was 15.4 µM (inactive). For the same compound, the GI50 (HCT-15) was 15.2 µM, the GI50 (MOLT-4) was 21.4 µM (inactive) and the GI50 (NCI-H23) was 18.5 µM (inactive). The GI50 (MDA-MB-231) was 17.1 µM (inactive) and the GI50 (CCRF-CEM) was 13 µM (inactive).

For `COc1cc([N+](=O)[O-])cc2c1NC(=O)C2(C)SC` (stereo not drawn), the GI50 (HOP-62) was > 100 µM (inactive), the GI50 (UACC-62) was 96.8 µM (inactive) and the GI50 (Malme-3M) was > 100 µM (inactive). For the same compound, the GI50 (Hs-578T) was > 100 µM (inactive), the GI50 (SK-MEL-2) was 60.7 µM (inactive) and the GI50 (SF-268) was > 100 µM (inactive). For the same compound, the GI50 (U-251) was > 100 µM (inactive), the GI50 (MDA-MB-435) was 53.1 µM (inactive) and the GI50 (OVCAR-8) was > 100 µM (inactive). The GI50 (HCC 2998) was > 100 µM (inactive), the GI50 (SK-MEL-5) was > 100 µM (inactive) and the GI50 (NCI-H460) was > 100 µM (inactive). For the same compound, the GI50 (ACHN) was > 100 µM (inactive), the GI50 (LOX IMVI) was 88.1 µM (inactive) and the GI50 (OVCAR-3) was 77.3 µM (inactive). For the same compound, the GI50 (A549) was > 100 µM (inactive), the GI50 (SF-295) was 63.7 µM (inactive) and the GI50 (M14) was 52.8 µM (inactive). The GI50 (BT-549) was > 100 µM (inactive), the GI50 (EKVX) was > 100 µM (inactive) and the GI50 (HCT-116) was 36.7 µM (inactive). For the same compound, the GI50 (MCF7) was 79.4 µM (inactive), the GI50 (UACC-257) was > 100 µM (inactive) and the GI50 (TK-10) was > 100 µM (inactive). The GI50 (KM12) was > 100 µM (inactive), the GI50 (NCI-H226) was > 100 µM (inactive) and the GI50 (PC-3) was > 100 µM (inactive). The GI50 (MDA-N) was 51.8 µM (inactive), the GI50 (RXF 393) was 86.7 µM (inactive) and the GI50 (CAKI-1) was > 100 µM (inactive). For the same compound, the GI50 (OVCAR-5) was > 100 µM (inactive), the GI50 (SK-MEL-28) was > 100 µM (inactive) and the GI50 (NCI/ADR-RES) was 94.6 µM (inactive). The GI50 (OVCAR-4) was 90.2 µM (inactive), the GI50 (SN12C) was 58.3 µM (inactive) and the GI50 (K562) was 34.4 µM (inactive). For the same compound, the GI50 (SNB-19) was > 100 µM (inactive), the GI50 (SNB-75) was 38.2 µM (inactive) and the GI50 (NCI-H522) was > 100 µM (inactive). The GI50 (A498) was > 100 µM (inactive), the GI50 (T47D) was 66.8 µM (inactive) and the GI50 (DU-145) was > 100 µM (inactive). The GI50 (HT-29) was > 100 µM (inactive), the GI50 (RPMI-8226) was > 100 µM (inactive) and the GI50 (IGROV-1) was > 100 µM (inactive). For the same compound, the GI50 (SR) was 68.2 µM (inactive), the GI50 (786-0) was > 100 µM (inactive) and the GI50 (SW-620) was 69 µM (inactive). For the same compound, the GI50 (HL-60) was 18.3 µM (inactive), the GI50 (SK-OV-3) was 25.4 µM (inactive) and the GI50 (UO-31) was > 100 µM (inactive). For the same compound, the GI50 (COLO 205) was > 100 µM (inactive), the GI50 (HCT-15) was over 100 µM and the GI50 (MOLT-4) was 31.6 µM (inactive). For the same compound, the GI50 (NCI-H23) was > 100 µM (inactive), the GI50 (MDA-MB-231) was > 100 µM (inactive) and the GI50 (CCRF-CEM) was 40.9 µM (inactive).
